According to patent publication US11476000B2, “Methods and systems using mathematical analysis and machine learning to diagnose disease” (Analytics For Life Inc., priority 2015, dated 2022):

Assays:
[1] = estimated; cited from earlier work
[2] = test system: outbred pregnant Sprague-Dawley rats; assay: Teratogenicity of maternal DMO administration in pregnant rats (CHD in progeny); assay type: in vivo; settings: rat pups after DMO exposure, natural delivery, echocardiography
Method: (§1) To explore the potential deleterious long-term consequences of resolved CHDs, the exemplified rat model was developed that recapitulates many of the clinical presentations of CHD. To generate such a model, pregnant rats were treated with a chemical teratogen. […] Without wishing to be bound to particular theory, it is thought that DMO teratogenicity is mediated by oxidative stress which might be the result of the result of hypoxia reperfusion injury caused by bradycardias induced by disruption of calcium and potassium ion channels in embryonic myocytes. […] The administration of four 300 mg/kg doses every twelve hours beginning on the morning of gestation day (GD) 9 produces approximately a 50% incidence of CHD if fetuses are examined on GD 21, one day prior to natural parturition (see, e.g., Weston et al., “Co-variation in frequency and severity of cardiovascular and skeletal defects in Sprague-Dawley rats after maternal administration of dimethadione, the N-demethylated metabolite of trimethadione. Birth defects research Part B,” Developmental and reproductive toxicology, Vol. 92, Pages 206-15 (2011)). […] For example, in infants, approximately 80% of VSD resolves by one year of age, and in test rats after DMO exposure, about 80% of the VSD resolve spontaneously by weaning. […]

[3] = test system: test rats exposed to DMO in-utero; assay: Cardiovascular adaptation to pregnancy in rats exposed to DMO in utero; assay type: in vivo, rat; settings: in-utero exposed rats with resolved CHD; altered CO, SV, strain, elevated mean arterial pressure
Method: as §1

[4] = test system: outbred pregnant Sprague-Dawley rats; settings: four 300 mg/kg doses every twelve hours beginning morning of GD 9; fetuses examined on GD 21; cited from earlier work

Structure (SMILES) | in utero exposures resulting in embryo/fetal loss, or malformations including a high incidence of CHD [1] | VSD that resolve spontaneously by weaning [2] | adaptation of the cardiovascular system to pregnancy [3] | incidence of CHD [4]
CN1C(=O)OC(C)(C)C1=O [trimethadione] | 80% |  |  | 
CC1(C)OC(=O)NC1=O [DMO, dimethadione] |  | approximately 80% | adapted poorly to the burden of pregnancy | ~50%
